This passage reports EC50 results from PubChem BioAssay AID696 (Sanford-Burnham Center for Chemical Genomics, 2007).

Alkaline phosphatase, placental type (Homo sapiens), sequence (P05187 whole entry, looked up): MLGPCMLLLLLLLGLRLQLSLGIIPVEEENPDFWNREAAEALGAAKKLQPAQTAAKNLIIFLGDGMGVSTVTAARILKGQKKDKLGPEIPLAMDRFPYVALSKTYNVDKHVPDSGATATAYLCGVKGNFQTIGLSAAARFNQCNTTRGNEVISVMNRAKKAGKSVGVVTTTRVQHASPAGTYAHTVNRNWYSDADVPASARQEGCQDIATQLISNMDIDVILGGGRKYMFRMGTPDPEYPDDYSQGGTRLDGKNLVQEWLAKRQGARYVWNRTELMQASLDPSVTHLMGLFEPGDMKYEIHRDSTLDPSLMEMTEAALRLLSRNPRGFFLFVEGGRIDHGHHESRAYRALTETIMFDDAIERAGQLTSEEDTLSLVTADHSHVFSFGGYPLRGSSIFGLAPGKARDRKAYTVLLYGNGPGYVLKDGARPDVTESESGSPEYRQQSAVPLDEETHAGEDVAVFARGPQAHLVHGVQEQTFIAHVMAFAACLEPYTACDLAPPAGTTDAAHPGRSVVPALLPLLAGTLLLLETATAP

The experiment addresses Alkaline phosphatase, placental type (Homo sapiens) (UniProt P05187). Nature of the experiment: activation of human placental alkaline phosphatase – biochemical, luminescence, HTS (AID 696). The note with it: purified PLAP enzyme, luminescent substrate read-out.
In the case of `N#CC(c1ccc(F)cc1)c1ccc(C(=O)c2ccccc2)cc1` (centres undefined), the EC50 – broadly, the concentration at which the effect is half-maximal – was 7.89 µM.

`O=C(Oc1ccc2c(=O)c(Oc3ccc4ccccc4c3)coc2c1)c1cncc(Br)c1`: the EC50 was 74 µM.

Take `CC1CC(C)CN(CC(C)(C)NS(=O)(=O)c2ccc(Cl)cc2)C1` (centres undefined): the EC50 was 24.8 µM.

Regarding `O=C(NC1(C(F)(F)F)Oc2ccc(Cl)cc2O1)N1CCC2(CC1)OCCO2` (centres undefined), the EC50 is 61.9 µM.

With `CC(C)N=c1scc(-c2ccco2)n1/N=C/c1ccc(O)c(O)c1`, the EC50 was 48.2 µM.

For the molecule `COc1ccc(-c2cc(NCc3ccccn3)n3ncnc3n2)cc1`, the EC50 was 65.9 µM.

Take `CCCn1c(C(O)c2ccc3c(c2)OCO3)nc2ccccc21` (centres undefined): the EC50 is 17.7 µM.

For the molecule `O=C(Cn1c(=O)n(-c2ccccc2)c(=O)c2sccc21)N1CCCC1`, the EC50 was 2.65 µM.

Turning to `O=C(Cn1c(=O)oc2cc(S(=O)(=O)N3CCCC3)ccc21)NCc1ccc(F)cc1`, the EC50 was 0.457 µM.

In the case of `CCOC(=O)c1c(C)[nH]c(C(=O)CSc2nnc(CC(C)c3ccccc3)o2)c1C` (centres undefined), the EC50 was 78.5 µM.

With `Cc1ccc(-n2c([O-])nc(-[n+]3ccccc3)c2C=O)cc1`, the EC50 was 9.08 µM.

For `Clc1ccc(-c2cc(CSc3cccc(Cl)c3)on2)cc1`, the EC50 was 69.4 µM.

Take `O=[N+]([O-])c1ccc(Sc2nnnn2-c2ccccc2)c(Cl)c1`: the EC50 was 26.3 µM.

Consider `CCC(=O)Nc1ccccc1C(=O)OCC(=O)c1ccccc1`, for which the EC50 was 39.2 µM.

As to `O=P(/C(=N/O)N1CCCCC1)(N1CCOCC1)N1CCOCC1`, the EC50 is 54.5 µM.

Take `Cc1ccc(/C=N/NC(=O)c2c[nH]c3ccccc23)o1`: the EC50 is 59.2 µM.

With `CC1Cc2ccccc2N1C(=O)CSc1nnc(Cc2ccccc2)n1CCc1ccccc1` (centres undefined), the EC50 was 86.8 µM.

For `O=C(Nc1ccccc1)NC1(C(=O)N2CCN(C(=O)c3ccco3)CC2)CCCCC1`, the EC50 is 35.6 µM.

`COc1cccc(NCc2cc3c(C(C)(C)C)nn(-c4ccccc4)c3[nH]c2=O)c1`: the EC50 is 78 µM.

`CCOc1ccc(CNC(=S)N/N=C\c2ccc([N+](=O)[O-])cc2)cc1`: the EC50 was 10.9 µM.

On to `CCCn1c(CNc2ccc(Br)cc2)nc2ccccc21`, for which the EC50 was 48.5 µM.

Take `CC(C)n1c(-c2ccc(N(C)C)cc2)nc2ccccc21`: the EC50 is 8.52 µM.

Regarding `O=C1Nc2ccc(Br)cc2/C1=N/N=C/C1=C(N2CCOCC2)C(=C\c2ccccc2)/CC1`, the EC50 is 38.4 µM.

For the molecule `c1ccc(Nc2cccc(Nc3ccccc3)n2)cc1`, the EC50 is 37 µM.

As to `Cc1cccc(N2C(=O)NC(=O)/C(=C\c3cnn(-c4ccccc4)c3)C2=O)c1`, the EC50 is 1.09 µM.

Turning to `Cc1ccc(C)c(NC(=S)NC(NC(=O)Cc2cccc3ccccc23)C(Cl)(Cl)Cl)c1` (centres undefined), the EC50 was 63.1 µM.

Regarding `Cc1cc(Nc2ccc(Cl)cc2)n(-c2cccc(Cl)c2)n1`, the EC50 was 51 µM.

Regarding `CCCCOC(=O)C(C)Nc1n[nH]c(=S)[nH]c1=O` (centres undefined), the EC50 was 21.4 µM.

Regarding `N#CC(c1ccc(F)cc1)c1ccc(C(=O)c2ccc(F)cc2)cc1` (centres undefined), the concentration for a half-maximal effect (EC50) was 23.1 µM.

Turning to `CCn1c(SCC(=O)c2ccc(O)c(O)c2)nnc1-c1ccccc1`, the EC50 is 79.4 µM.

On to `O=P(CCCCCCCCCP(=O)(c1ccccc1)c1ccccc1)(c1ccccc1)c1ccccc1`, for which the EC50 was 99.6 µM.

As for `O=C(C[n+]1cc2ccccc2c2ccccc21)c1ccccc1`, the EC50 is 94.1 µM.

Consider `CCCCN1CCc2c1nc1ccc(Br)cc1c2N`, for which the EC50 is 77.2 µM.

Regarding `c1ccc(CSCCc2ccncc2)cc1`, the EC50 is 66.9 µM.

On to `Cc1nn(C)cc1/C=N\NC(=O)c1ccc2c(c1)c(C)c(C)n2Cc1ccccc1`, for which the EC50 was 72.1 µM.

Take `Cc1ccc(C2CC(c3ccc(Cl)cc3)=NNC2=O)cc1` (centres undefined): the EC50 is 0.203 µM.

In the case of `COc1ccc(-c2nnc(-c3ccc(Br)o3)o2)cc1OC`, the EC50 is 25.9 µM.

Consider `COc1cccc(NC(=O)c2nnn(CCc3ccccc3)c2N)c1`, for which the EC50 was 82.8 µM.

Regarding `COC(=O)c1cn[nH]c1NC(=S)Nc1ccccc1C`, the EC50 is 21.1 µM.
